Results reported in patent publication US8288435B2, “2-aza-bicyclo[3.1.0]hexane derivatives as orexin receptor antagonists” (Actelion Pharmaceuticals Ltd., priority 2006, dated 2012).

What was measured:
[1] = target: T1, human orexin-1 receptor (Homo sapiens, UniProt O43613); assay: Intracellular calcium measurements (FLIPR), orexin receptor antagonistic activity, OX1; assay type: cell-based; conditions: CHO cells expressing the human orexin-1 receptor, 10 nM orexin-A as agonist
T1 construct: expressed in transfected cells; host or cells: CHO (Chinese hamster ovary) cells, G418 selection
T1 sequence (O43613 1-425): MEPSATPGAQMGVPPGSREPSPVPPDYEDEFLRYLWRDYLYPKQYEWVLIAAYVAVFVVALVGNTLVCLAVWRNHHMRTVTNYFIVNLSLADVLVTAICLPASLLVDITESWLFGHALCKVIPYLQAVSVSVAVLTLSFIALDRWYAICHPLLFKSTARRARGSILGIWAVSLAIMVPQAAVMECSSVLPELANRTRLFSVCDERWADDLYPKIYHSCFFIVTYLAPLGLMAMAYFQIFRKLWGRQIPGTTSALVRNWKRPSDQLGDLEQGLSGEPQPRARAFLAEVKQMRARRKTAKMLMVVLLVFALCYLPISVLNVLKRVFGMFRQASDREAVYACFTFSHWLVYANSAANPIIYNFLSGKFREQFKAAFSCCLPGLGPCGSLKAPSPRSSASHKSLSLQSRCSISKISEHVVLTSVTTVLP
Experimental: (§1) The orexin receptor antagonistic activity of the compounds of formula (I) is determined in accordance with the following experimental method.
(§2) Intracellular Calcium Measurements:
(§3) Chinese hamster ovary (CHO) cells expressing the human orexin-1 receptor and the human orexin-2 receptor, respectively, are grown in culture medium (Ham F-12 with L-Glutamine) containing 300 μg/ml G418, 100 U/ml penicillin, 100 μg/ml streptomycin and 10% inactivated fetal calf serum (FCS). The cells are seeded at 80′000 cells/well into 96-well black clear bottom sterile plates (Costar) which have been precoated with 1% gelatine in Hanks' Balanced Salt Solution (HBSS). All reagents are from Gibco BRL. The seeded plates are incubated overnight at 37° C. in 5% CO2.
(§4) Human orexin-A as an agonist is prepared as 1 mM stock solution in MeOH:water (1:1), diluted in HBSS containing 0.1% bovine serum albumin (BSA) and 2 mM HEPES for use in the assay at a final concentration of 10 nM.
(§5) Antagonists are prepared as 10 mM stock solution in DMSO, then diluted in 96-well plates, first in DMSO, then in HBSS containing 0.1% bovine serum albumin (BSA) and 2 mM HEPES.
(§6) On the day of the assay, 100 μl of loading medium (HBSS containing 1% FCS, 2 mM HEPES, 5 mM probenecid (Sigma) and 3 μM of the fluorescent calcium indicator fluo-3 AM (1 mM stock solution in DMSO with 10% pluronic acid) (Molecular Probes) is added to each well.
(§7) The 96-well plates are incubated for 60 min at 37° C. in 5% CO2. The loading solution is then aspirated and cells are washed 3 times with 200 μl HBSS containing 2.5 mM probenecid, 0.1% BSA, 2 mM HEPES. 100 μl of that same buffer is left in each well.
(§8) Within the Fluorescent Imaging Plate Reader (FLIPR, Molecular Devices), antagonists are added to the plate in a volume of 50 μl, incubated for 20 min and finally 100 μl of agonist is added. Fluorescence is measured for each well at 1 second intervals, and the height of each fluorescence peak is compared to the height of the fluorescence peak induced by 10 nM orexin-A with buffer in place of antagonist. For each antagonist, IC50 value (the concentration of compound needed to inhibit 50% of the agonistic response) is determined.

[2] = target: T2, human orexin-2 receptor (Homo sapiens, UniProt O43614); assay: Intracellular calcium measurements (FLIPR), orexin receptor antagonistic activity, OX2; assay type: cell-based; conditions: CHO cells expressing the human orexin-2 receptor, 10 nM orexin-A as agonist
T2 construct: expressed in transfected cells; host or cells: CHO (Chinese hamster ovary) cells, G418 selection
T2 sequence (O43614 1-444): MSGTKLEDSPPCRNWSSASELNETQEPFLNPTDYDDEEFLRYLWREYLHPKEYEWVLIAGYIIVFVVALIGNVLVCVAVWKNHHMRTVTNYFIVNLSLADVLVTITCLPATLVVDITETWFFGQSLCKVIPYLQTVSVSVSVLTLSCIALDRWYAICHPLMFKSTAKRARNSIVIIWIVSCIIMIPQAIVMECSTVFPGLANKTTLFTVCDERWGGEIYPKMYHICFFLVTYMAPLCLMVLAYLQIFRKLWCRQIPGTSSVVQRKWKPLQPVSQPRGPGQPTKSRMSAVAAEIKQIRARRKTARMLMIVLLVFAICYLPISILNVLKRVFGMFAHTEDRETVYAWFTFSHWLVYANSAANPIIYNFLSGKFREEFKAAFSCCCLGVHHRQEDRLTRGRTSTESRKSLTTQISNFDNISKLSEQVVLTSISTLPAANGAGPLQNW
Experimental: as §1, §2, §3, §4, §5, §6, §7, §8

SMILES	IC50 [1] [nM]	IC50 [2] [nM]
Cc1nc(C(=O)N2[C@H](CNC(=O)c3cccc4cccnc34)C[C@@H]3C[C@@H]32)c(-c2ccccc2)s1 [Example 230, Quinoline-8-carboxylic acid [(1S,3S,5S)-2-(2-methyl-5-phenyl-thiazole-4-carbonyl)-2-aza-bicyclo[3.1.0]hex-3-ylmethyl]-amide]	13	100
Cc1cccc(-c2sc(N)nc2C(=O)N2[C@H](CNC(=O)c3c(C)noc3C)C[C@@H]3C[C@@H]32)c1 [Example 33, 3,5-dimethyl-isoxazole-4-carboxylic acid [(1S,3S,5S)-2-(2-amino-5-m-tolyl-thiazole-4-carbonyl)-2-aza-bicyclo[3.1.0]hex-3-ylmethyl]-amide]	129	94
Cc1cccc(-c2sc(C)nc2C(=O)N2[C@H](CNC(=O)c3cccc(C(F)(F)F)c3)C[C@@H]3C[C@@H]32)c1 [Example 101, N-[(1S,3S,5S)-2-(2-Methyl-5-m-tolyl-thiazole-4-carbonyl)-2-aza-bicyclo[3.1.0]hex-3-ylmethyl]-3-trifluoromethyl-benzamide]	42	57
Cc1cccc(-c2sc(N)nc2C(=O)N2[C@H](CNC(=O)c3cccc(Br)c3)C[C@@H]3C[C@@H]32)c1 [Example 163, N-[(1S,3S,5S)-2-(2-Amino-5-m-tolyl-thiazole-4-carbonyl)-2-aza-bicyclo[3.1.0]hex-3-ylmethyl]-3-bromo-benzamide]	62	57
Cc1nc(C(=O)N2[C@H](CNC(=O)c3nccc4ccccc34)C[C@@H]3C[C@@H]32)c(-c2cccc(F)c2)s1 [Example 38, isoquinoline-1-carboxylic acid {(1S,3S,5S)-2-[5-(3-fluoro-phenyl)-2-methyl-thiazole-4-carbonyl]-2-aza-bicyclo[3.1.0]hex-3-ylmethyl}-amide]	104	358

Second part, the molecule after the results:

IC50 [1] [nM]	IC50 [2] [nM]	SMILES
110	98	Cc1cccc(-c2sc(C)nc2C(=O)N2[C@H](CNc3nccc(C(F)(F)F)n3)C[C@@H]3C[C@@H]32)c1 [Example 274, (2-Methyl-5-m-tolyl-thiazol-4-yl)-{(1S,3S,5S)-3-[(4-trifluoromethyl-pyrimidin-2-ylamino)-methyl]-2-aza-bicyclo[3.1.0]hex-2-yl}-methanone]
62	145	Cc1nc(C(=O)N2[C@H](CNc3ncc(Br)cn3)C[C@@H]3C[C@@H]32)c(-c2ccc(F)c(F)c2)s1 [Example 259, {(1S,3S,5S)-3-[(5-Bromo-pyrimidin-2-ylamino)-methyl]-2-aza-bicyclo[3.1.0]hex-2-yl}-[5-(3,4-difluoro-phenyl)-2-methyl-thiazol-4-yl]-methanone]
37	291	Cc1cc(C)cc(-c2sc(C)nc2C(=O)N2[C@H](CNc3ncc(Br)cn3)C[C@@H]3C[C@@H]32)c1 [Example 255, {(1S,3S,5S)-3-[(5-Bromo-pyrimidin-2-ylamino)-methyl]-2-aza-bicyclo[3.1.0]hex-2-yl}-[5-(3,5-dimethyl-phenyl)-2-methyl-thiazol-4-yl]-methanone]
131	68	O=C(c1nc(C2CC2)sc1-c1ccccc1)N1[C@H](CNc2ncc(Br)cn2)C[C@@H]2C[C@@H]21 [Example 265, {(1S,3S,5S)-3-[(5-Bromo-pyrimidin-2-ylamino)-methyl]-2-aza-bicyclo[3.1.0]hex-2-yl}-(2-cyclopropyl-5-phenyl-thiazol-4-yl)-methanone]
